Legend:
Type in all cases: in vivo
[1] = system: foxtail, giant (giant foxtail, Setaria faberii); experiment: Test A preemergence, foxtail, giant; conditions: 0 to 100 scale
From the text: (§1) Seeds of plant species selected from bamyardgrass (Echinochloa crus-galli), kochia (Kochia scoparia), ragweed (common ragweed, Ambrosia elatior), ryegrass, Italian (Italian ryegrass, Lolium multiflorum), foxtail, giant (giant foxtail, Setaria faberii), pigweed (Amaranthus retroflexus), crabgrass, large (large crabgrass, Digitaria sanguinalis), momingglory (Ipomoea spp.), velvetleaf (Abutilon theophrasti), wheat (Triticum aestivum), and corn (Zea mays) were planted into a blend of loam soil and sand and treated preemergence with a directed soil spray using test chemicals formulated in a non-phytotoxic solvent mixture which included a surfactant. At the same time, plants selected from these crop and weed species and also blackgrass (Alopecurus myosuroides), and galium (catchweed bedstraw, Galium aparine) were planted in pots containing the same blend of loam soil and sand and treated with postemergence applications of test chemicals formulated in the same manner. Plants ranged in height from 2 to 10 cm and were in the one- to two-leaf stage for the postemergence treatment. Treated plants and untreated controls were maintained in a greenhouse for approximately 10 days, after which time all treated plants were compared to untreated controls and visually evaluated for injury. Plant response ratings, summarized in Table A, are based on a 0 to 100 scale where 0 is no effect and 100 is complete control. A dash (-) response means no test result.

[2] = system: barnyardgrass (Echinochloa crus-galli); experiment: Test B flooded paddy test, barnyardgrass; conditions: Flood, 250 g ai/ha; scale of 0 to 100
Experimental: (§2) Plant species in the flooded paddy test selected from rice (Oryza sativa), sedge, umbrella (small-flower umbrella sedge, Cyperus difformis), ducksalad (Heteranthera limosa), and barnyardgrass (Echinochloa crus-galli) were grown to the 2-leaf stage for testing. At time of treatment, test pots were flooded to 3 cm above the soil surface, treated by application of test compounds directly to the paddy water, and then maintained at that water depth for the duration of the test. Treated plants and controls were maintained in a greenhouse for 13 to 15 days, after which time all species were compared to controls and visually evaluated. Plant response ratings, summarized in Table B, are based on a scale of 0 to 100 where 0 is no effect and 100 is complete control. A dash (-) response means no test result.

rice (Oryza sativa) = experiment: Test B flooded paddy test, rice; conditions: Flood, 250 g ai/ha; scale of 0 to 100
Experimental: as §2

[3] = system: wheat (Triticum aestivum); experiment: Test A preemergence, wheat; conditions: 0 to 100 scale
From the text: as §1

[4] = system: morningglory (Ipomoea spp.); experiment: Test A postemergence, morningglory; conditions: 0 to 100 scale
From the text: as §1

[5] = system: pigweed (Amaranthus retroflexus); experiment: Test A preemergence, pigweed; conditions: 0 to 100 scale
From the text: as §1

[6] = system: foxtail, giant (giant foxtail, Setaria faberii); experiment: Test A postemergence, foxtail, giant; conditions: 0 to 100 scale
From the text: as §1

[7] = system: pigweed (Amaranthus retroflexus); experiment: Test A postemergence, pigweed; conditions: 0 to 100 scale
From the text: as §1

[8] = system: barnyardgrass (Echinochloa crus-galli); experiment: Test A postemergence, barnyardgrass; conditions: 0 to 100 scale
From the text: as §1

corn (Zea mays) [9] = experiment: Test A postemergence, corn; conditions: 0 to 100 scale
From the text: as §1

[10] = system: crabgrass, large (large crabgrass, Digitaria sanguinalis); experiment: Test A postemergence, crabgrass, large; conditions: 0 to 100 scale
From the text: as §1

[11] = system: ducksalad (Heteranthera limosa); experiment: Test B flooded paddy test, ducksalad; conditions: Flood, 250 g ai/ha; scale of 0 to 100
Experimental: as §2

[12] = system: sedge, umbrella (small-flower umbrella sedge, Cyperus difformis); experiment: Test B flooded paddy test, sedge, umbrella; conditions: Flood, 250 g ai/ha; scale of 0 to 100
Experimental: as §2

[13] = system: barnyardgrass (Echinochloa crus-galli); experiment: Test A preemergence, barnyardgrass; conditions: 0 to 100 scale
From the text: as §1

[14] = system: velvetleaf (Abutilon theophrasti); experiment: Test A postemergence, velvetleaf; conditions: 0 to 100 scale
From the text: as §1

[15] = system: velvetleaf (Abutilon theophrasti); experiment: Test A preemergence, velvetleaf; conditions: 0 to 100 scale
From the text: as §1

[16] = system: crabgrass, large (large crabgrass, Digitaria sanguinalis); experiment: Test A preemergence, crabgrass, large; conditions: 0 to 100 scale
From the text: as §1

[17] = system: wheat (Triticum aestivum); experiment: Test A postemergence, wheat; conditions: 0 to 100 scale
From the text: as §1

[18] = system: morningglory (Ipomoea spp.); experiment: Test A preemergence, morningglory; conditions: 0 to 100 scale
From the text: as §1

corn (Zea mays) [19] = experiment: Test A preemergence, corn; conditions: 0 to 100 scale
From the text: as §1

SMILES | Plant response rating, Foxtail, Giant ([1]; 125 g ai/ha) | Plant response rating, Foxtail, Giant ([1]; 500 g ai/ha) | Plant response rating, Barnyardgrass [2] | Plant response rating, Rice (rice (Oryza sativa)) | Plant response rating, Wheat ([3]; 125 g ai/ha) | Plant response rating, Wheat ([3]; 500 g ai/ha) | Plant response rating, Morningglory ([4]; 125 g ai/ha) | Plant response rating, Morningglory ([4]; 500 g ai/ha) | Plant response rating, Pigweed ([5]; 125 g ai/ha) | Plant response rating, Pigweed ([5]; 500 g ai/ha) | Plant response rating, Foxtail, Giant ([6]; 125 g ai/ha) | Plant response rating, Foxtail, Giant ([6]; 500 g ai/ha) | Plant response rating, Pigweed ([7]; 125 g ai/ha) | Plant response rating, Pigweed ([7]; 500 g ai/ha) | Plant response rating, Barnyardgrass ([8]; 125 g ai/ha) | Plant response rating, Barnyardgrass ([8]; 500 g ai/ha) | Plant response rating, Corn (corn (Zea mays) [9]; 125 g ai/ha) | Plant response rating, Corn (corn (Zea mays) [9]; 500 g ai/ha) | Plant response rating, Crabgrass, Large ([10]; 125 g ai/ha) | Plant response rating, Crabgrass, Large ([10]; 500 g ai/ha) | further results
Clc1cnc(Oc2cccnc2-n2cc(Br)cn2)nc1 [Compound 1, 2-[[2-(4-bromo-1H-pyrazol-1-yl)-3-pyridinyl]oxy]-5-chloropyrimidine] | 20 | 80 | 0 | 0 | 0 | 10 | 10 | 80 | 50 | 90 | 10 | 30 | 90 | 100 | 0 | 10 | 10 | 20 | 10 | 50 | Plant response rating, Ducksalad [11]: 60; Plant response rating, Sedge, Umbrella [12]: 50; Plant response rating, Barnyardgrass ([13]; 125 g ai/ha): 10; Plant response rating, Barnyardgrass ([13]; 500 g ai/ha): 50; Plant response rating, Velvetleaf ([14]; 125 g ai/ha): 20; Plant response rating, Velvetleaf ([14]; 500 g ai/ha): 50; Plant response rating, Velvetleaf ([15]; 125 g ai/ha): 10; Plant response rating, Velvetleaf ([15]; 500 g ai/ha): 30; Plant response rating, Crabgrass, Large ([16]; 125 g ai/ha): 40; Plant response rating, Crabgrass, Large ([16]; 500 g ai/ha): 100; Plant response rating, Wheat ([17]; 125 g ai/ha): 10; Plant response rating, Wheat ([17]; 500 g ai/ha): 20; Plant response rating, Morningglory ([18]; 500 g ai/ha): 0; Plant response rating, Corn (corn (Zea mays) [19]; 125 g ai/ha): 0; Plant response rating, Corn (corn (Zea mays) [19]; 500 g ai/ha): 0
Clc1cnc(Oc2cccnc2-n2cc(Cl)cn2)nc1 [Compound 2, 5-chloro-2-[[2-(4-chloro-1H-pyrazol-1-yl)-3-pyridinyl]oxy]pyrimidine] | 10 | 80 | 0 | 0 | 0 | 10 | 40 | 80 | 70 | 90 | 0 | 30 | 100 | 100 | 0 | 20 | 0 | 10 | 10 | 40 | Plant response rating, Ducksalad [11]: 80; Plant response rating, Sedge, Umbrella [12]: 75; Plant response rating, Barnyardgrass ([13]; 125 g ai/ha): 0; Plant response rating, Barnyardgrass ([13]; 500 g ai/ha): 40; Plant response rating, Velvetleaf ([14]; 125 g ai/ha): 20; Plant response rating, Velvetleaf ([14]; 500 g ai/ha): 70; Plant response rating, Velvetleaf ([15]; 125 g ai/ha): 10; Plant response rating, Velvetleaf ([15]; 500 g ai/ha): 30; Plant response rating, Crabgrass, Large ([16]; 500 g ai/ha): 100; Plant response rating, Wheat ([17]; 125 g ai/ha): 10; Plant response rating, Wheat ([17]; 500 g ai/ha): 20; Plant response rating, Morningglory ([18]; 125 g ai/ha): 0; Plant response rating, Morningglory ([18]; 500 g ai/ha): 0; Plant response rating, Corn (corn (Zea mays) [19]; 125 g ai/ha): 0; Plant response rating, Corn (corn (Zea mays) [19]; 500 g ai/ha): 0
Cc1cnn(-c2ncccc2Oc2ncc(Cl)cn2)c1 [Compound 3] | 0 | 0 | 0 | 0 | 0 | 0 | 20 | 30 | 0 | 10 | 0 | 10 | 10 | 40 | 0 | 10 | 0 | 10 | 10 | 10 | Plant response rating, Ducksalad [11]: 0; Plant response rating, Sedge, Umbrella [12]: 60; Plant response rating, Barnyardgrass ([13]; 125 g ai/ha): 0; Plant response rating, Barnyardgrass ([13]; 500 g ai/ha): 0; Plant response rating, Velvetleaf ([14]; 125 g ai/ha): 10; Plant response rating, Velvetleaf ([14]; 500 g ai/ha): 20; Plant response rating, Velvetleaf ([15]; 125 g ai/ha): 0; Plant response rating, Velvetleaf ([15]; 500 g ai/ha): 0; Plant response rating, Crabgrass, Large ([16]; 125 g ai/ha): 0; Plant response rating, Crabgrass, Large ([16]; 500 g ai/ha): 0; Plant response rating, Wheat ([17]; 125 g ai/ha): 10; Plant response rating, Wheat ([17]; 500 g ai/ha): 10; Plant response rating, Morningglory ([18]; 125 g ai/ha): 0; Plant response rating, Morningglory ([18]; 500 g ai/ha): 0; Plant response rating, Corn (corn (Zea mays) [19]; 125 g ai/ha): 0; Plant response rating, Corn (corn (Zea mays) [19]; 500 g ai/ha): 0
Cc1ccc(Oc2ncc(Cl)cn2)c(-n2cc(Br)cn2)n1 [Compound 10] | 0 | 20 | 0 | 0 | 0 | 0 | 0 | 10 | 0 | 40 | 0 | 0 | 10 | 50 | 0 | 0 | 0 | 0 | 0 | 10 | Plant response rating, Ducksalad [11]: 0; Plant response rating, Sedge, Umbrella [12]: 0; Plant response rating, Barnyardgrass ([13]; 125 g ai/ha): 0; Plant response rating, Barnyardgrass ([13]; 500 g ai/ha): 0; Plant response rating, Velvetleaf ([14]; 125 g ai/ha): 50; Plant response rating, Velvetleaf ([14]; 500 g ai/ha): 80; Plant response rating, Velvetleaf ([15]; 125 g ai/ha): 0; Plant response rating, Velvetleaf ([15]; 500 g ai/ha): 20; Plant response rating, Crabgrass, Large ([16]; 125 g ai/ha): 0; Plant response rating, Crabgrass, Large ([16]; 500 g ai/ha): 50; Plant response rating, Wheat ([17]; 125 g ai/ha): 0; Plant response rating, Wheat ([17]; 500 g ai/ha): 0; Plant response rating, Morningglory ([18]; 125 g ai/ha): 0; Plant response rating, Morningglory ([18]; 500 g ai/ha): 10; Plant response rating, Corn (corn (Zea mays) [19]; 125 g ai/ha): 0; Plant response rating, Corn (corn (Zea mays) [19]; 500 g ai/ha): 0

Reference: patent publication US11006631B2, “Substituted pyrimidinyloxy pyridine derivatives as herbicides” (FMC Corporation, priority 2015, dated 2021)
